Test results: patent US20220257592A1, “METHODS OF TREATING CANCER” (HOFFMANN-LA ROCHE INC., priority 2019, published 2022)

Columns and labels:
[1] = molecular target: TrkC (Homo sapiens, UniProt Q16288); settings: cited from earlier work
[2] = molecular target: TrkB (Homo sapiens, UniProt Q16620); settings: cited from earlier work
[3] = Expanded safety population (338 adult and 30 pediatric patients), fractures; format: in vivo, human
Source text: In adult patients, some fractures occurred in the setting of a fall or other trauma to the affected area, while in pediatric patients, all fractures occurred in patients with minimal or no trauma. In general, there was inadequate assessment for tumor involvement at the site of fracture; however, radiologic abnormalities possibly indicative of tumor involvement were reported in some patients. In both adult and pediatric patients, most fractures were hip or other lower extremity fractures (e.g., femoral or tibial shaft). In a limited number of patients, bilateral femoral neck fractures occurred. The median time to fracture was 3.8 months (range 0.3 to 18.5 months) in adults and 4.0 months (range: 1.8 months to 7.4 months) in pediatric patients.

[4] = molecular target: cytochrome P450 3A4 (CYP3A4) (Homo sapiens, UniProt P08684); experiment: In vitro metabolism studies; format: in vitro ADME

## CN1CCN(c2ccc(C(=O)Nc3n[nH]c4ccc(Cc5cc(F)cc(F)c5)cc34)c(NC3CCOCC3)c2)CC1 [Entrectinib, N-[5-(3,5-difluorobenzyl)-1H-indazol-3-yl]-4-(4-methyl-piperazin-1-yl)-2-(tetrahydro-pyran-4-ylamino)-benzamide]
[1]
  inhibition of TrkC tyrosine kinase: potent inhibitor
[2]
  inhibition of TrkB tyrosine kinase: potent inhibitor
[3]; 30 pediatric patients
  Fractures: 23%
[3]; 338 adult patients
  Fractures: 5%
[3]; adults
  Entrectinib interrupted due to fractures: 41%
[3]; adults, range 0.3 to 18.5 months
  Median time to fracture: 3.8 months
[3]; human, in vivo
  Discontinuation due to fractures: No patients discontinued
  Risk of fractures: increases the risk of fractures
[3]; pediatric patients
  Entrectinib interrupted due to fractures: 43%
[3]; pediatric patients, range: 1.8 months to 7.4 months
  Median time to fracture: 4.0 months
[4]
  CYP3A4 substrate status: sensitive substrate of CYP3A4
[4]; in vitro studies
  route of clearance: predominantly through hepatic metabolism
  share of metabolism by CYP3A4: ~76%
